Measurements from paper PMC7835950 (Frontiers in Chemistry, 2021).
Like-named read-outs stand apart in the source and are kept apart here.

Columns and labels:
[1] = molecular target: T1, OGDH (Rattus norvegicus, UniProt Q5XI78); assay: OADH reaction catalyzed by the enzyme preparation from rat liver, high [OA] (low-affinity OA sites); format: biochemical; settings: for Amax: low-affinity sites
T1 construct: the tissue fractions with the complexes enriched to a degree allowing for a robust detection of the enzymatic activities, have been used; from tissue; host or cells: rat liver
T1 sequence (Q5XI78 41-1023): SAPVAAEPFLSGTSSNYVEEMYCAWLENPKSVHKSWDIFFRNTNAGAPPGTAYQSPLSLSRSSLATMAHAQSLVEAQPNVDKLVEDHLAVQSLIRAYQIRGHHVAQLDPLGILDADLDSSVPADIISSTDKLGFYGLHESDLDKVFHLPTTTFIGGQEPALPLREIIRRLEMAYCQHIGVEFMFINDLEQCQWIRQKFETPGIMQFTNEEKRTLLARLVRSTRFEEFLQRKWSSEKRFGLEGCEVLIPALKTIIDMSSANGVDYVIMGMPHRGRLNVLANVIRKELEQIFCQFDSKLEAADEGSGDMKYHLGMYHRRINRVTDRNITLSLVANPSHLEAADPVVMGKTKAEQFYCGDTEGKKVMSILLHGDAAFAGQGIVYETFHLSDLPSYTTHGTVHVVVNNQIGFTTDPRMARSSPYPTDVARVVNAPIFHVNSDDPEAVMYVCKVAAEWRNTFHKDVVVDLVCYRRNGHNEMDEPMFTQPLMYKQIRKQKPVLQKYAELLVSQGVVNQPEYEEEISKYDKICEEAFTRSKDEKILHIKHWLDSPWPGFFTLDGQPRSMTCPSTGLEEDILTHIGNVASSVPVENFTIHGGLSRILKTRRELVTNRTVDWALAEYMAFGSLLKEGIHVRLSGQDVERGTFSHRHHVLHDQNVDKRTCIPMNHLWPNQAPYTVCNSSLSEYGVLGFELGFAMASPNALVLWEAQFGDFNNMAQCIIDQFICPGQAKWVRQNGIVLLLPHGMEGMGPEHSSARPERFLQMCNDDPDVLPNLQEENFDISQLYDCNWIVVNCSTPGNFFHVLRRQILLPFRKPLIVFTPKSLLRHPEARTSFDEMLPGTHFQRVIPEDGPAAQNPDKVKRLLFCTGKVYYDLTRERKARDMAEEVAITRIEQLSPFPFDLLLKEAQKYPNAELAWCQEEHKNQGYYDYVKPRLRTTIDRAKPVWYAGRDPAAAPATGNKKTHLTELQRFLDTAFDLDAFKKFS
Procedure: Enzymes catalyzing OGDH and OADH reactions were enriched from rat hearts and livers using polyethylene glycol precipitation, as previously described (Artiukhov et al., [2020]).
(§1) The enzyme activities were assayed in the medium (pH 7.0) containing 50 mM MOPS, 1 mM ThDP, 1 mM MgCl2, 1 mM CaCl2, 1 mM dithiothreitol 0.15 mM Coenzyme A, 0.25 mM NAD^+ and various concentrations of 2-oxo substrates (0–10 mM OG or OA) and their phosphonate analogs (0–5,000 μM SP, GP, or AP). Reactions were started by addition of the enzyme preparations to the assay media. The amount of enzyme preparations (0.074 mg protein for the preparation from liver and 0.023 mg protein for the preparation from heart) were chosen to induce the lowest reliably measured reaction rate (ΔA340 = 0.001/min) at 0.01 mM OA without the phosphonates.
Reaction rates were calculated from linear parts of the product accumulation curves (up to 10 min, dependent on the reaction rate), excluding the initial region, where mixing the reagents and solubilization of the preparation affected the optical density.
Non-linear regression was used to approximate the experimental dependences of the reaction rates on the OG or OA concentration according to the Michaelis-Menten equation ( a=Amax*[S]/Km+[S] ) or its sum ( a=Amax*[S]/Km+[S]+Amax,2*[S]/Km,2+[S] ). The former equation describes one type of the active sites. […] The assumption was based on the presence of the two enzymes, OGDH and OADH, in the employed preparations.
The kinetic data were also analyzed by linear regression, using the known methods of the linearization of the Michaelis-Menten equation in the Lineweaver-Burk ( 1/a=1/Amax(1+Km/[S]) ) and Eadie-Hofstee ( a=Amax−Kmv/[S] ) coordinates. Due to the several orders of magnitude difference in the values of Km,1 and Km,2, the linear regression required separate analysis of the dependencies in the intervals of the low and high concentrations of 2-oxoadipate. The Km and Amax values obtained in independent experiments using the non-linear and linear regression analyses of the experimental data, were averaged and presented as Mean ± Standard Error of Mean.
(§2) To determine the inhibition constants (Ki), the effective values of Kmeff and Amaxeff , calculated from the hyperbolic or linear approximations as described above, were plotted against the concentration of the inhibitors ([I]). The linear regression of the equation Kmeff/Amaxeff=Km/Amax(1+[I]/Ki) , (Cornish-Bowden, [1979]) was applied to find the Intercept (Km/Amax) and Slope (Km/(Amax*Ki)) of a dependence. The values of Ki were determined as the ratio of the corresponding Intercepts to the Slopes. In the two-site model, the Ki(1) and Ki(2) were calculated separately from the linear approximations of Km,1eff/Amax,1eff vs. [I] and Km,2eff/Amax,2eff vs. [I] dependences, respectively. The standard errors of Ki were determined from means and standard errors of the Intercepts and the Slopes, using the previously described formula for standard deviation of a fraction (Bunik et al., [1999]). The Ki values obtained from the non-linear and linear regression analyses of the experimental data were averaged and presented as Mean ± Standard Error of Mean.

[2] = tested on: OGDH and OADH; assay: Mechanism of inhibition of the OGDH and OADH reactions (effective Km and Amax vs inhibitor concentration); format: biochemical, rat; settings: vs 2-oxo substrate; cardiac or hepatic preparations; inhibitor up to 200 μM
Procedure: as §1, §2

[3] = Stability of the phosphonates and their esters during storage, by NMR; format: physicochemical; settings: trisodium salts
Procedure: Stability of the purified phosphonates and their esterified precursor was analyzed by NMR after storage under the inert (pure argon) or ambient (air) atmosphere and in water solutions. ^1H, ^13C and ^31P NMR spectra were recorded at 400, 100.6, and 161.9 MHz, respectively with a Bruker Avance 400 spectrometer. Chemical shifts were calculated using D2O or CDCl3 as reference standards for trisodium salts and triesters, respectively. The spectra of the phosphonates and their esters before and after storage are shown in Supplementary Figures 1, 2 correspondingly.

[4] = high [OA] 0.1–10 mM, Michaelis-Menten, read-out: Ki, MM
[5] = high [OA], Eadie-Hofstee, read-out: Ki, EH
[6] = high [OA], Lineweaver-Burk, read-out: Ki, LB
[7] = high [OA], average, read-out: Ki, Average

Row | SMILES | Amax ([1]; [I] 0.5 µM) | Amax ([1]; [I] 2 µM) | Amax ([1]; [I] 10 µM) | Amax ([1]; [I] 50 µM) | Amax ([1]; [I] 200 µM) | Ki [1, 4] | Ki [1, 5] | Ki [1, 6] | Ki [1, 7] | primary mechanism of inhibition [2] | stability upon the shelf storage [3]
1 | O=C(O)CCCCC(=O)P(=O)(O)O [AP, adipoyl phosphonate] | 0.0084 ± 0.0002 µmol/min per mg of protein | 0.0085 ± 0.0002 µmol/min per mg of protein | 0.0090 ± 0.0003 µmol/min per mg of protein | 0.0096 ± 0.0002 µmol/min per mg of protein | 0.0097 ± 0.0010 µmol/min per mg of protein | 50000 ± 2000 nM | 47000 ± 2000 nM | 46000 ± 2000 nM | 47000 ± 1000 nM | competitive inhibition | high stability
2 | O=C(O)CCCC(=O)P(=O)(O)O [GP, glutaryl phosphonate] | – | 0.0088 ± 0.0004 µmol/min per mg of protein | 0.0093 ± 0.0005 µmol/min per mg of protein | 0.0056 ± 0.0001 µmol/min per mg of protein | – | 1400 ± 200 nM | 1300 ± 300 nM | 1300 ± 300 nM | 1300 ± 200 nM | competitive inhibition | high stability
3 | O=C(O)CCC(=O)P(=O)(O)O [SP, succinyl phosphonate] | – | – | 0.0080 ± 0.0004 µmol/min per mg of protein | 0.0074 ± 0.0002 µmol/min per mg of protein | – | 3700 ± 100 nM | 2500 ± 400 nM | 2100 ± 400 nM | 2800 ± 500 nM | competitive inhibition | high stability
